Experimental data: patent US10138253B2, “Imidazopyridine macrocycles as inhibitors of human immunodeficiency virus replication” (priority 2015, dated 2018)
Like-named read-outs stand apart in the source and are kept apart here.

Key:
[1] = ether bond, PPh3/DIAD, THF
[2] = ether bond, 20-membered ring, PPh3/DIAD, THF
[3] = system: NL-RLuc virus; assay: Inhibition of HIV replication (NL-RLuc virus, luciferase readout, MT-2 cells); format: cell-based; details: Human immunodeficiency virus 1, MT2, 120 h
Excerpt: Inhibition of HIV Replication:
A recombinant NL-RLuc proviral clone was constructed in which a section of the nef gene from NL4-3 was replaced with the Renilla Luciferase gene. This virus is fully infectious and can undergo multiple cycles of replication in cell culture. In addition, the luciferous reporter provides a simple and easy method for quantitating the extent of virus growth and consequently, the antiviral activity of test compounds. The plasmid pNLRLuc contains the proviral NL-Rluc DNA cloned into pUC18 at the PvuII site. The NL-RLuc virus was prepared by transfection of 293T cells with the plasmid pNLRLuc. Transfections were performed using the LipofectAMINE PLUS kit from Invitrogen (Carlsbad, Calif.) according to the manufacturer and the virus generated was titered in MT-2 cells. For susceptibility analyses, the titrated virus was used to infect MT-2 cells in the presence of compound, and after 5 days of incubation, cells were processed and quantitated for virus growth by the amount of expressed luciferase. Assay media was RPMI 1640 supplemented with 10% heat inactivated fetal bovine serum (FBS), 100 units/ml penicillin G/100 units/ml streptomycin, 10 mM HEPES buffer pH 7.55 and 2 mM L-glutamine. The results from at least 2 experiments were used to calculate the EC50 values. Luciferase was quantitated using the Dual Luciferase kit from Promega (Madison, Wis.). Susceptibility of viruses to compounds was determined by incubation in the presence of serial dilutions of the compound. The 50% effective concentration (EC50) was calculated by using the exponential form of the median effect equation where (Fa)=1/[1+(ED50/drug conc.)^m] (Johnson V A, Byington R T. Infectivity Assay. In Techniques in HIV Research. ed. Aldovini A, Walker B D. 71-76. New York: Stockton Press. 1990). Activity equal to A refers to a compound having an EC50≤100 nM, while B and C denote compounds having an EC50 between 100 nM and luM (B) or >1 uM (C).

[4] = from COC(=O)[C@@H](OC(C)(C)C)c1c(C)cc2nc(-c3cccc(-c4cc(F)c(F)cc4O)c3)cn2c1N1CCC(C)(OCCOC[C@@H](C)O)CC1, 10.0 mM, 0.5 h
[5] = from COC(=O)[C@@H](OC(C)(C)C)c1c(C)c(C)c2nc(-c3cccc(-c4ccc(C)cc4O)c3)cn2c1N1CCC(C)(OCCOC[C@@H](C)O)CC1, 20.0 mM, 0.5 h
[6] = from COC(=O)[C@@H](OC(C)(C)C)c1c(C)c(C)c2nc(-c3cccc(-c4cc(C)ccc4O)c3)cn2c1N1CCC(C)(OCCOC[C@@H](C)O)CC1, 3.49 mM, 25.0 °C, 16.0 h
[7] = from COC(=O)[C@@H](OC(C)(C)C)c1c(C)cc2nc(-c3cccc(-c4cc(C)ccc4O)c3)cn2c1N1CCC(C)(OCCOC[C@@H](C)O)CC1, 39.2 mM, 18.0 h, 2 steps

Compound | EC50 ([3]; read-out: Activity) | EC50 ([3]; read-out: EC50 μM) | other results
COC(=O)[C@@H](OC(C)(C)C)c1c(C)cc2nc3cn2c1N1CCC(C)(CC1)OCCOC[C@H](C)Oc1cc(F)c(F)cc1-c1cccc-3c1 |  |  | ring closure, yield of all isomers [1, 4]: 95%; ring closure, isolated yield [2, 4]: 95%
COC(=O)[C@@H](OC(C)(C)C)c1c(C)c(C)c2nc3cn2c1N1CCC(C)(CC1)OCCOC[C@H](C)Oc1cc(C)ccc1-c1cccc-3c1 |  |  | ring closure, yield of all isomers [1, 5]: 47%; ring closure, isolated yield [2, 5]: 47%
COC(=O)[C@@H](OC(C)(C)C)c1c(C)c(C)c2nc3cn2c1N1CCC(C)(CC1)OCCOC[C@H](C)Oc1ccc(C)cc1-c1cccc-3c1 |  |  | ring closure, yield of all isomers [1, 6]: 60%; ring closure, isolated yield [2, 6]: 60%
COC(=O)[C@@H](OC(C)(C)C)c1c(C)cc2nc3cn2c1N1CCC(C)(CC1)OCCOC[C@H](C)Oc1ccc(C)cc1-c1cccc-3c1 |  |  | ring closure, yield of all isomers [1, 7]: 65%; ring closure, isolated yield [2, 7]: 65%
Cc1ccc2c(c1)O[C@@H](C)COCCOC1(C)CCN(CC1)c1c([C@H](OC(C)(C)C)C(=O)O)c(C)c(C)c3nc(cn13)-c1cccc-2c1 [Example 23, (2S)-2-(tert-Butoxy)-2-((6S,Z)-14,27,28,44,6-pentamethyl-5,8,11-trioxa-2(5,2)-imidazo[1,2-a]pyridina-1(1,4)-piperidina-3(1,3),4(1,2)-dibenzenacycloundecaphane-26-yl)acetic Acid] | < 0.1 µM |  | 
Cc1cc(F)c2c(c1)O[C@@H](C)COCCOC1(C)CCN(CC1)c1c([C@H](OC(C)(C)C)C(=O)O)c(C)c(C)c3nc(cn13)-c1cccc-2c1 [Example 19, (2S)-2-(tert-Butoxy)-2-((6S,Z)-46-fluoro-14,27,28,44,6-pentamethyl-5,8,11-trioxa-2(5,2)-imidazo[1,2-a]pyridina-1(1,4)-piperidina-3(1,3),4(1,2)-dibenzenacycloundecaphane-26-yl)acetic Acid] | < 0.1 µM |  | 
Cc1cc2nc3c(Cl)n2c(c1[C@H](OC(C)(C)C)C(=O)O)N1CCC(C)(CC1)OCCOC[C@H](C)Oc1cc(F)c(F)cc1-c1cccc-3c1 [Example 7, (2S)-2-(tert-Butoxy)-2-[(22S)-8-chloro-17,18-difluoro-4,22,28-trimethyl-21,24,27-trioxa-1,7,34-triazahexacyclo[26.2.2.1^6,^9.1^1^0,^1^4.0^2,^7.0^1^5,^2^0]tetratriaconta-2,4,6(34),8,10(33),11,13,15(20),16,18-decaen-3-yl]acetic Acid] | < 0.1 µM |  | 
Cc1c([C@H](OC(C)(C)C)C(=O)O)c2n3c(Cl)c(nc3c1Cn1cccn1)-c1cccc(c1)-c1cc(F)c(F)cc1O[C@@H](C)COCCOC1(C)CCN2CC1 [Example 10, (2S)-2-(tert-Butoxy)-2-[(22S)-8-chloro-17,18-difluoro-4,22,28-trimethyl-5-(1H-pyrazol-1-ylmethyl)-21,24,27-trioxa-1,7,34-triazahexacyclo[26.2.2.1^6,^9.1^1^0,^1^4.0^2,^7.0^1^5,^2^0]tetratriaconta-2,4,6(34),8,10(33),11,13,15(20),16,18-decaen-3-yl]acetic acid] | < 0.1 µM | 0.005 µM | 
Cc1ccc2c(c1)O[C@@H](C)COCCOC1(C)CCN(CC1)c1c([C@H](OC(C)(C)C)C(=O)O)c(C)c(C)c3nc(c(Cl)n13)-c1cccc-2c1 [Example 24, (2S)-2-(tert-Butoxy)-2-((6S,E)-23-chloro-14,27,28,44,6-pentamethyl-5,8,11-trioxa-2(5,2)-imidazo[1,2-a]pyridina-1(1,4)-piperidina-3(1,3),4(1,2)-dibenzenacycloundecaphane-26-yl)acetic Acid] | < 0.1 µM |  | 
Cc1c([C@H](OC(C)(C)C)C(=O)O)c2n3cc(nc3c1C(C)O)-c1cccc(c1)-c1cc(F)c(F)cc1O[C@@H](C)COCCOC1(C)CCN2CC1 (single isomer, unassigned) [Example 16] | < 0.1 µM | 0.002 µM | 
Cc1c([C@H](OC(C)(C)C)C(=O)O)c2n3c(Cl)c(nc3c1C)-c1cccc(c1)-c1cc(F)ccc1O[C@@H](C)COCCOC1(C)CCN2CC1 [Example 29, (2S)-2-(tert-butoxy)-2-((6S,E)-23-chloro-45-fluoro-14,27,28,6-tetramethyl-5,8,11-trioxa-2(5,2)-imidazo[1,2-a]pyridina-1(1,4)-piperidina-3(1,3),4(1,2)-dibenzenacycloundecaphane-26-yl)acetic Acid] | < 0.1 µM | 0.001 µM | 
COCc1c(C)c([C@H](OC(C)(C)C)C(=O)O)c2n3c(Cl)c(nc13)-c1cccc(c1)-c1cc(F)c(F)cc1O[C@@H](C)COCCOC1(C)CCN2CC1 [Example 11, (2S)-2-(tert-Butoxy)-2-[(22S)-8-chloro-17,18-difluoro-5-(methoxymethyl)-4,22,28-trimethyl-21,24,27-trioxa-1,7,34-triazahexacyclo[26.2.2.1^6,^9.1^1^0,^1^4.0^2,^7.0^1^5,^2^0]tetratriaconta-2,4,6(34),8,10(33),11,13,15(20),16,18-decaen-3-yl]acetic Acid] | < 0.1 µM |  | 
C=C(C)c1c(C)c([C@H](OC(C)(C)C)C(=O)O)c2n3cc(nc13)-c1cccc(c1)-c1cc(F)c(F)cc1O[C@@H](C)COCCOC1(C)CCN2CC1 [Example 14, (2S)-2-(tert-Butoxy)-2-[(22S)-17,18-difluoro-4,22,28-trimethyl-5-(prop-1-en-2-yl)-21,24,27-trioxa-1,7,34-triazahexacyclo[26.2.2.1^6,^9.1^1^0,^1^4.0^2,^7.0^1^5,^2^0]tetratriaconta-2,4,6(34),8,10(33),11,13,15(20),16,18-decaen-3-yl]acetic Acid] | < 0.1 µM |  | 
Cc1c([C@H](O)C(=O)O)c2n3cc(nc3c1C)-c1cccc(c1)-c1cc(F)c(F)cc1O[C@@H](C)COCCOC1(C)CCN2CC1 [Example 5, (2S)-2-[(22S)-17,18-Difluoro-4,5,22,28-tetramethyl-21,24,27-trioxa-1,7,34-triazahexacyclo[26.2.2.1^6,^9.1^1^0,^1^4.0^2,^7.0^1^5,^2^0]tetratriaconta-2,4,6(34),8,10(33),11,13,15(20),16,18-decaen-3-yl]-2-hydroxyacetic Acid] | 0.1 to 1 µM | 0.283 µM | 
Cc1c([C@H](OC(C)(C)C)C(=O)O)c2n3cc(nc3c1CO)-c1cccc(c1)-c1cc(F)c(F)cc1O[C@@H](C)COCCOC1(C)CCN2CC1 [Example 6, (2S)-2-(tert-Butoxy)-2-[(22S)-17,18-difluoro-5-(hydroxymethyl)-4,22,28-trimethyl-21,24,27-trioxa-1,7,34-triazahexacyclo[26.2.2.1^6,^9.1^1^0,^1^4.0^2,^7.0^1^5,^2^0]tetratriaconta-2,4,6(34),8,10(33),11,13,15(20),16,18-decaen-3-yl]acetic Acid] | < 0.1 µM | 0.002 µM | 
Cc1cc(F)c2c(c1)O[C@@H](C)COCCOC1(C)CCN(CC1)c1c([C@H](OC(C)(C)C)C(=O)O)c(C)c(C)c3nc(c(Cl)n13)-c1cccc-2c1 [Example 21, (2S)-2-(tert-Butoxy)-2-((6S,E)-23-chloro-46-fluoro-14,27,28,44,6-pentamethyl-5,8,11-trioxa-2(5,2)-imidazo[1,2-a]pyridina-1(1,4)-piperidina-3(1,3),4(1,2)-dibenzenacycloundecaphane-26-yl)acetic acid] | < 0.1 µM | 0.002 µM | 
